Test results reported in BindingDB's records for doi:10.1021/jm9903343 (Harvard Medical School, 2000).

Assay: Binding affinity towards Opioid receptor delta 1 by displacing the radioligand [3H]naltrindole from guinea pig brain membrane

Compound	Ki [nM]
O=C1c2ccc(O)cc2C23CCCCC2C1N(CC1CC1)CC3 (stereo not drawn)	150
O=C1c2ccc(O)cc2C23CCCCC2C1N(CC1CCCO1)CC3 (stereo not drawn)	1
C[C@H]1C2C(=O)c3ccc(O)cc3[C@@]1(C)CCN2CC1CCCO1 (stereo partly drawn) [8-Hydroxy-6,11-dimethyl-3-(tetrahydro-furan-2-ylmethyl)-3,4,5,6-tetrahydro-2H-2,6-methano-benzo[d]azocin-1-one]	> 100000
